A word on the IC50: it is the concentration that gives 50% inhibition. Usually Ki stands for the equilibrium dissociation constant of an inhibitor or competing ligand from its target. As usually defined, the Emax is the size of the effect at its maximum, as opposed to the concentration needed. In general, EC50 refers to the concentration needed to bring the measured effect to its halfway point.

The structures appear in SMILES notation. Several values for one entry are separate records, joined by “and”; a condition that tells them apart may be missing. Identical values can stand only once.

25 molecules from ChEMBL document CHEMBL5338756, “Dual-Acting Small Molecules: Subtype-Selective Cannabinoid Receptor 2 Agonist/Butyrylcholinesterase Inhibitor Hybrids Show Neuroprotection in an Alzheimer's Disease Mouse Model” (J Med Chem, 2023) can be followed below.

The target in experiment [1] is Cannabinoid receptor 1 (Rattus norvegicus) (UniProt P20272). Kind of experiment: Displacement of [3H]CP55940 from rat brain membrane CB1 receptor at 10 uM incubated for 3 hrs by scintillation counter analysis relative to control. In kind it is cell membranes. In general terms: Loss of bound radioactivity is the signal in a displacement assay; it reports binding, not function.
Cannabinoid receptor 1 (Rattus norvegicus), sequence (P20272 whole entry): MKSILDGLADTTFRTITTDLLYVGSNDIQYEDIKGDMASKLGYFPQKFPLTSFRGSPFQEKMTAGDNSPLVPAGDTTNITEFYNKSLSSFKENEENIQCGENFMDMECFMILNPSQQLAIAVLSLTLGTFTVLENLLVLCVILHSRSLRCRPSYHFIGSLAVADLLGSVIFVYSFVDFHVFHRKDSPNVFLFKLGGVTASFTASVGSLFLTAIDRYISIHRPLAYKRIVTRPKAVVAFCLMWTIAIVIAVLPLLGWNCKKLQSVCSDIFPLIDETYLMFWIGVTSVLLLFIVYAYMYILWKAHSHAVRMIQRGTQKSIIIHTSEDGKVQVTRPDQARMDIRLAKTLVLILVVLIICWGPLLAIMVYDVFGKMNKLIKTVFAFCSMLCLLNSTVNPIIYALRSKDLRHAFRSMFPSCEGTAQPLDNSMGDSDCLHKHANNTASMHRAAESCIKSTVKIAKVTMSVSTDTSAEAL

Experiment [2] concerns the target T1, Cholinesterase (Homo sapiens, UniProt P06276).
The target of experiment [3] is T2, Acetylcholinesterase (Homo sapiens, UniProt P22303).
T2 sequence (P22303 whole entry): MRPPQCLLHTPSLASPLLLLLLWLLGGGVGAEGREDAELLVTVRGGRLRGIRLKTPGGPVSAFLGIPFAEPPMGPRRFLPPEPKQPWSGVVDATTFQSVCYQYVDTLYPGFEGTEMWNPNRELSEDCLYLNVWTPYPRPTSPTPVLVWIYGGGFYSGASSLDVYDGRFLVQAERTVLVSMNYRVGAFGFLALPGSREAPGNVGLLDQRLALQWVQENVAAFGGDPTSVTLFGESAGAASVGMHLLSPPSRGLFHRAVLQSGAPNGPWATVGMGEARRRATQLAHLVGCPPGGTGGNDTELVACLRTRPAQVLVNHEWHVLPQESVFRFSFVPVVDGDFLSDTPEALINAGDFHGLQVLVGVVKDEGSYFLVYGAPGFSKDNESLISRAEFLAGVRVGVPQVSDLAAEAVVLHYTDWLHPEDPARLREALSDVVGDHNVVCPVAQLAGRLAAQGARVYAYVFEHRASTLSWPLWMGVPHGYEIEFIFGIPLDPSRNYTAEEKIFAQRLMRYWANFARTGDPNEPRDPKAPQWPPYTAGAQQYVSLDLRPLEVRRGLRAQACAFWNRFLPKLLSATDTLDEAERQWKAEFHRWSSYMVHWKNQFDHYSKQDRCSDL
Experiment [4] concerns the target T3, Cannabinoid receptor 2 (Homo sapiens, UniProt P34972).
Description: Displacement of [3H]CP55940 from human CB2 receptor expressed in HEK293 cell membrane incubated for 3 hrs by scintillation counter analysis
In experiment [5] the target is T1, Cholinesterase. The source holds these as a separate data set.
Experiment [6] has as its target T2, Acetylcholinesterase. This is another data set of the same source.
Experiment [7] has as its target T3, Cannabinoid receptor 2. Kind of experiment: biochemical.
Description: Displacement of [3H]CP55940 from human CB2 receptor stably expressed in HEK293 cells by Cheng-Prusoff equation analysis
The target in experiment [8] is T3, Cannabinoid receptor 2. Kind of experiment: Displacement of [3H]CP55940 from human CB2 receptor expressed in HEK293 cell membrane at 10 uM incubated for 3 hrs by scintillation counter analysis relative to control. In kind it is cell membranes.
The target of experiment [9] is T3, Cannabinoid receptor 2. Kind of experiment: Agonist activity at human CB2 receptor stably expressed in CHO-K1 cells co-expressing Galphaq16 by Fluo-4AM dye based calcium mobilization assay relative to CP55940. The format is functional, cell-based. Background: Calcium assays in cells follow changes in intracellular calcium, usually with a dye or a luminescent sensor.

Experiment [10] deals with T3, Cannabinoid receptor 2. The source holds these as a separate data set.
Experiment [11] has as its target T3, Cannabinoid receptor 2. The source holds these as a separate data set.
Description: Agonist activity at human CB2 receptor stably expressed in HEK293 cells assessed as induction of beta-arrestin 2 recruitment incubated for 2 hrs by luminescence based assay
For experiment [12], the target named is T3, Cannabinoid receptor 2. Kind of experiment: Agonist activity at human CB2 receptor stably expressed in HEK293 cells assessed as induction of beta-arrestin 2 recruitment at 10 uM incubated for 2 hrs by luminescence based assay relative to CP55940. The format is functional, cell-based. The following applies: filed as agonist. (Recruitment of arrestin is a read-out of receptor activation apart from second messengers.)

For experiment [13], the system named is Mus musculus. Kind of experiment: Synergistic neuroprotective activity against amyloid beta (25 to 35) induced Alzheimer's disease Swiss mouse model assessed as combination index at 0.1 to 1 mg/kg, ip administered once daily for day 1 to day 7 […] and measured on day 9 and 10 in presence of 2-benzyl-N,N-diethyl-1-isopentyl-1H-benzo[d]imidazole-5-carboxamide by step-through passive avoidance test. The conditions noted are these: dose 0.1-1 mg/kg. The format is functional.

Experiment [14] has as its system Mus musculus. Kind of experiment: Synergistic neuroprotective activity against amyloid beta (25 to 35) induced Alzheimer's disease Swiss mouse model assessed as combination index at 0.1 mg/kg, ip administered once daily for day 1 to day 7 […] and measured on day 8 in presence of 2-benzyl-N,N-diethyl-1-isopentyl-1H-benzo[d]imidazole-5-carboxamide by spontaneous alternation performance test. The format is functional.

T3 sequence (P34972 whole entry): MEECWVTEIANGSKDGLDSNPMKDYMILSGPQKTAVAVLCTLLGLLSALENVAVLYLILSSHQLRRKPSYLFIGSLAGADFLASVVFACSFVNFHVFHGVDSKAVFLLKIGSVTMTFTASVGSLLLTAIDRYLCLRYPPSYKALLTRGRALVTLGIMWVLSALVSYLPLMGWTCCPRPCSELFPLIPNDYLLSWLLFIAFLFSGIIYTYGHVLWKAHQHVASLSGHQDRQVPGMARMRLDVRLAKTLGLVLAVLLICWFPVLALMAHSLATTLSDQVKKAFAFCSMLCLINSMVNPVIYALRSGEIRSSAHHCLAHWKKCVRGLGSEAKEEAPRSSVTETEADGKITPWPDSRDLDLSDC
T1 sequence (P06276 whole entry): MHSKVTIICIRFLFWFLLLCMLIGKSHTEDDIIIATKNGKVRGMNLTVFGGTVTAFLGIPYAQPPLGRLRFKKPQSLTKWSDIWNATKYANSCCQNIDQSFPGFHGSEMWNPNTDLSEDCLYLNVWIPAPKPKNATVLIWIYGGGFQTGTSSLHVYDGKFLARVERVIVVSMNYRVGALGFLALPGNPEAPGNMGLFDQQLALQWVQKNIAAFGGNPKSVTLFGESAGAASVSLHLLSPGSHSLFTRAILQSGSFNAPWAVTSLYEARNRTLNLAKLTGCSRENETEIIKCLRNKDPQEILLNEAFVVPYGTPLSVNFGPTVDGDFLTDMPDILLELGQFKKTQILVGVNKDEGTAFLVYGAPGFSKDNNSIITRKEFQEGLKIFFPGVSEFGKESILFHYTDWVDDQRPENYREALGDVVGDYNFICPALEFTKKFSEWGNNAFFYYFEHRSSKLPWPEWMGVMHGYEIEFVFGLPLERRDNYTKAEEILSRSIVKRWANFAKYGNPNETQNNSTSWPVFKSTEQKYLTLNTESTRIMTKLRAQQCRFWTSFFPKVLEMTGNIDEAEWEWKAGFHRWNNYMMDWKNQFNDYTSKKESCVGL

`CCOc1ccc(Cc2nc3cc(OC(=O)N4CCCC4)ccc3n2CCC(C)C)cc1` had an Activity in [1] (filed as agonist) of 49%. The IC50 was 3580 nM and 3160 nM against Cholinesterase [2]; above 25100 nM on Acetylcholinesterase [3]; 1520 nM at Cannabinoid receptor 2 [4].

The molecule `CCN(CC)C(=O)c1ccc2c(c1)nc(Cc1ccc(O)cc1)n2CCC(C)C` yielded an Activity in experiment [1] of 10%. Also, the IC50 was above 25100 nM on Cholinesterase [2] and 2210 nM on Cannabinoid receptor 2 [4].

Take `CCOc1ccc(Cc2nc3cc(OC(=O)N(C)CC)ccc3n2CCC(C)C)cc1`: the Activity in experiment [1] (filed as agonist) came out at 80%. Further, the IC50 against Cholinesterase [2] is 2900 nM; at Acetylcholinesterase [3] it was above 25100 nM; against Cannabinoid receptor 2 [4], 580 nM.

`O=c1cc(-c2ccc(O)cc2)oc2cccc(OCc3ccccc3)c12`: the results for the IC50 on Cholinesterase [5] and on Acetylcholinesterase [6] were 6.9 nM and 711 nM, respectively.

For `O=c1cc(-c2ccc(O)cc2)oc2ccccc12`, the IC50 at Cholinesterase [5] stood at 304 nM; at Acetylcholinesterase [6] it was 1500 nM.

For `NCCOCCOc1ccc(-c2cc(=O)c3ccccc3o2)cc1`, the midpoint of inhibition against Cholinesterase [5], the IC50, lay at 13400 nM. Further, the affinity on Cannabinoid receptor 2 [7] corresponds to a Ki of 20 nM.

In turn, `CC(C)(C)OC(=O)NCCOCCOc1ccc(-c2cc(=O)c3c(OCc4ccccc4)cccc3o2)cc1` showed an IC50 at Cholinesterase [5] of 1780 nM. At Cannabinoid receptor 2 [7], this molecule returned an inhibition constant Ki of 2000 nM.

`CCOc1ccc(Cc2nc3cc(OC(=O)NC4CC4)ccc3n2CCC(C)C)cc1` had an Activity in experiment [1] of 22%. Besides, the results for the IC50 against Cholinesterase [2], at Acetylcholinesterase [3] and against Cannabinoid receptor 2 [4] were 1350 nM, above 25100 nM and 1010 nM, respectively.

In turn, `CCN(CC)C(=O)c1ccc2c(c1)nc(Cc1ccc(OC(=O)N(C)c3ccccc3)cc1)n2CCC(C)C` gave an Activity in [1] of 25%. Also, the IC50 at Cholinesterase [2] was 10100 nM; against Acetylcholinesterase [3], 3460 nM; at Cannabinoid receptor 2 [4], 3850 nM.

Regarding `CCN(CC)C(=O)c1ccc2c(c1)nc(Cc1ccc(OC(=O)NC)cc1)n2CCC(C)C`, at Cannabinoid receptor 2 [8], the Activity was 33%.

Molecule `CCOc1ccc(Cc2nc3cc(OC(=O)N(C)C)ccc3n2CCC(C)C)cc1` displayed an Activity in experiment [1] (filed as agonist) of 57%. For the same molecule, the results for the 50% inhibitory concentration (IC50) against Cholinesterase [2], against Acetylcholinesterase [3] and on Cannabinoid receptor 2 [4] were above 25100 nM, above 25100 nM and 1190 nM, respectively.

`CCN(CC)C(=O)c1ccc2c(c1)nc(Cc1ccc(OC(=O)N(C)Cc3ccccc3)cc1)n2CCC(C)C` had an Activity in [1] (filed as agonist) of 51%. The IC50 against Cholinesterase [2] stood at 390 nM; against Acetylcholinesterase [3], 9010 nM; against Cannabinoid receptor 2 [4], 2600 nM.

Turning to `CCNC(=O)Oc1ccc(Cc2nc3cc(C(=O)N(CC)CC)ccc3n2CCC(C)C)cc1`, the Activity at Cannabinoid receptor 2 [8] was 19%; in experiment [1], 37%. The 50% inhibitory concentration (IC50) on Cholinesterase [2] is 810 nM; against Acetylcholinesterase [3], above 25100 nM.

As for `CCN(CC)C(=O)c1ccc2c(c1)nc(Cc1ccc(OC(=O)NC3CC3)cc1)n2CCC(C)C`, the Activity at Cannabinoid receptor 2 [8] (filed as agonist) is 50%; in [1], 32%. For the same molecule, the IC50 against Cholinesterase [2] is 70 nM and 79.4 nM; at Acetylcholinesterase [3], above 25100 nM.

In [1] (filed as agonist), `CCN(C)C(=O)Oc1ccc(Cc2nc3cc(C(=O)N(CC)CC)ccc3n2CCC(C)C)cc1` gave an Activity of 40%. The IC50 on Cholinesterase [2] is 330 nM; against Acetylcholinesterase [3], above 25100 nM; against Cannabinoid receptor 2 [4] it was 11000 nM.

As to `CCN(CC)C(=O)c1ccc2c(c1)nc(Cc1ccccc1)n2CCC(C)C`, the 50% inhibitory concentration (IC50) on Cholinesterase [2] was 50 nM; against Acetylcholinesterase [3] it was above 25100 nM; against Cholinesterase [5] it was 6.4 nM; at Acetylcholinesterase [6], 3800 nM.

Turning to `CC(C)(C)OC(=O)NCCOCCOc1ccc(-c2cc(=O)c3ccccc3o2)cc1`, the IC50 against Cholinesterase [5] stood at 2 nM. In addition, the Ki on Cannabinoid receptor 2 [7] was determined as 4500 nM.

Consider `CCN(CC)C(=O)Oc1ccc(Cc2nc3cc(C(=O)N(CC)CC)ccc3n2CCC(C)C)cc1`, for which the Activity was below 10% at Cannabinoid receptor 2 [8] and 43% in experiment [1] (filed as agonist). Also, the IC50 at Cholinesterase [2] was 4220 nM; on Acetylcholinesterase [3] it was above 25100 nM.

On to `CCOc1ccc(Cc2nc3cc(O)ccc3n2CCC(C)C)cc1`, for which the Activity in [1] worked out at 19%. The IC50 against Acetylcholinesterase [3] was above 25100 nM; against Cannabinoid receptor 2 [4], 5530 nM.

Turning to `CCCN(C)C(=O)Oc1ccc(Cc2nc3cc(C(=O)N(CC)CC)ccc3n2CCC(C)C)cc1`, the Activity in experiment [1] (filed as agonist) amounted to 46%. Besides, the results for the 50% inhibitory concentration (IC50) at Cholinesterase [2] and against Acetylcholinesterase [3] were 1060 nM and above 25100 nM, respectively.

Take `CCOc1ccc(Cc2nc3cc(OC(=O)N4CCC4)ccc3n2CCC(C)C)cc1`: the Activity in experiment [1] (filed as agonist) came out at 41%. In addition, at Cannabinoid receptor 2 [9] (filed as agonist), the maximum response (Emax) was 68%. The values for the 50% inhibitory concentration (IC50) at Cholinesterase [2], against Acetylcholinesterase [3] and on Cannabinoid receptor 2 [4] were 150 nM, above 25100 nM and 1020 nM, respectively. Moreover, the concentration giving a half-maximal response (EC50) on Cannabinoid receptor 2 [10] is 1300 nM; at Cannabinoid receptor 2 [11] it was 42.6 nM.

In turn, `CCN(CC)C(=O)c1ccc2c(c1)nc(Cc1ccc(OC(=O)N(C)C)cc1)n2CCC(C)C` displayed an Activity in [1] below 10%. Further, the maximal response (Emax) was 42% on Cannabinoid receptor 2 [9] (filed as agonist) and 79% at Cannabinoid receptor 2 [12]. Also, the IC50 came to 620 nM at Cholinesterase [2], 8660 nM against Acetylcholinesterase [3] and 780 nM on Cannabinoid receptor 2 [4]. Besides, the 50% effective concentration (EC50) stood at 244 nM on Cannabinoid receptor 2 [10] and 82 nM at Cannabinoid receptor 2 [11].

For the molecule `Cc1cc([N+](=O)[O-])c2oc(-c3ccc(OCCOCCNC(=O)OC(C)(C)C)cc3)cc(=O)c2c1`, the CI worked out at 0.65 in the experiment with Mus musculus [13] and 0.49 in the experiment on Mus musculus [14]. For the same molecule, the 50% inhibitory concentration (IC50) against Cholinesterase [5] came out at 1600 nM. For the same molecule, on Cannabinoid receptor 2 [7], the affinity, expressed as Ki, was 764 nM.

As to `CCN(CC)C(=O)c1ccc2c(c1)nc(Cc1ccc(OC(=O)NCc3ccccc3)cc1)n2CCC(C)C`, the Activity in experiment [1] is below 10%. Also, the maximum response (Emax) at Cannabinoid receptor 2 [9] is 22%. Moreover, the half-maximal inhibitory concentration (IC50) is 190 nM against Cholinesterase [2]; 4500 nM and 3980 nM on Acetylcholinesterase [3]; 11000 nM against Cannabinoid receptor 2 [4]. The same molecule showed a 50% effective concentration (EC50) on Cannabinoid receptor 2 [10] of 7710 nM.

Molecule `Cc1c(C(=O)NN2CCCCC2)nn(-c2ccc(Cl)cc2Cl)c1-c1ccc(Cl)cc1` registered an Activity at Cannabinoid receptor 2 [8] below 10%.
